Results published in patent publication US20150337013A1, “NOVEL ANTIBACTERIAL AGENTS FOR THE TREATMENT OF GRAM POSITIVE INFECTIONS” (priority 2008, published 2015).
Read-outs that look alike come from different tables or passages of the source.

How the values were obtained:
[1] = test system: Staphylococcus aureus SAU.42 (ATCC 29213); assay type: cell-based
Procedure, shortened: (§1)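 CLSI M7-A7 broth microdilution, modified: MHB + 50 mg/L Ca, 5×10^5 bacteria/well, 2-fold dilutions, DMSO ≤1%, 18-20 h, 37° C, 200 rpm. Growth = visible turbidity or OD600 ≥0.1; MIC = lowest conc. without visible turbidity, μg/mL.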

[2] = test system: Enterococcus faecium EFM.14 (ATCC 6569); assay type: cell-based
Procedure, shortened: as §1

[3] = test system: Enterococcus faecium EFM.384, Daptomycin resistant mutant (14-A); assay type: cell-based; settings: MHBc with 50 mg/L calcium, 18-20 hours at 37° C.
Procedure, shortened: as §1

[4] = test system: Staphylococcus aureus SAU.399 (ATCC 43300), Methicillin and Oxacillin Resistant; assay type: cell-based
Procedure, shortened: as §1

[5] = test system: Enterococcus faecalis EFS.201 (ATCC 49452); assay type: cell-based
Procedure, shortened: as §1

[6] = test system: Enterococcus faecalis EFS.312, Daptomycin resistant mutant (EFA); assay type: cell-based; settings: MHBc with 50 mg/L calcium, 18-20 hours at 37° C.
Procedure, shortened: as §1

[7] = test system: Staphylococcus aureus SAU.278, Daptomycin resistant mutant (D10); assay type: cell-based; settings: MHBc with 50 mg/L calcium, 18-20 hours at 37° C.
Procedure, shortened: as §1

[8] = MHBc with 50 mg/L calcium, 18-20 hours at 37° C.

SMILES: CCCCCCC12CCC(C(=O)N[C@@H](Cc3c[nH]c4ccccc34)C(=O)N[C@H](CC(N)=O)C(=O)N[C@@H](CC(=O)O)C(=O)N[C@@H]3C(=O)NCC(=O)N[C@@H](CCCN)C(=O)N[C@@H](CC(=O)O)C(=O)N[C@H](C)C(=O)N[C@@H](CC(=O)O)C(=O)NCC(=O)N[C@H](CO)C(=O)N[C@@H]([C@H](C)CC(=O)O)C(=O)N[C@@H](CC(=O)c4ccccc4N)C(=O)O[C@@H]3C)(CC1)CC2 [Compound 23]
- Sa42 MIC ([1]; ATCC 29213): 0.50 µg/mL
- Efm14 MIC ([2]; ATCC 6569): 0.5 µg/mL
- Efm384 MIC [3]: 4 µg/mL
- Sa399 MIC ([4]; ATCC 43300): 0.5 µg/mL
- Efs201 MIC ([5]; ATCC 49452): 0.5 µg/mL
- Efs312 MIC [6]: 4 µg/mL
- Sa278 MIC [7]: 1 µg/mL
- C. diff MIC90 (Clostridium difficile): 0.5 µg/mL

SMILES: CCCCCCCCCCCCOc1ccc(C(=O)N[C@@H](Cc2c[nH]c3ccccc23)C(=O)N[C@H](CC(N)=O)C(=O)N[C@@H](CC(=O)O)C(=O)N[C@@H]2C(=O)NCC(=O)N[C@@H](CCCN)C(=O)N[C@@H](CC(=O)O)C(=O)N[C@H](C)C(=O)N[C@@H](CC(=O)O)C(=O)NCC(=O)N[C@H](CO)C(=O)N[C@@H]([C@H](C)CC(=O)O)C(=O)N[C@@H](CC(=O)c3ccccc3N)C(=O)O[C@@H]2C)cc1 [Compound 39]
- Sa42 MIC [1, 8]: 1.00 µg/mL
- Efm14 MIC [2, 8]: 2.0 µg/mL
- Efm384 MIC [3]: 2 µg/mL
- Sa399 MIC [4, 8]: 0.500 µg/mL
- Efs201 MIC [5, 8]: 0.5 µg/mL
- Efs312 MIC [6]: 2 µg/mL
- Sa278 MIC [7]: 2.00 µg/mL
- C. diff MIC90 (Clostridium difficile): 16 µg/mL

SMILES: C[C@H](CC(=O)O)[C@@H]1NC(=O)[C@@H](CO)NC(=O)CNC(=O)[C@H](CC(=O)O)NC(=O)[C@@H](C)NC(=O)[C@H](CC(=O)O)NC(=O)[C@H](CCCN)NC(=O)CNC(=O)[C@@H](NC(=O)[C@H](CC(=O)O)NC(=O)[C@@H](CC(N)=O)NC(=O)[C@H](Cc2c[nH]c3ccccc23)NC(=O)/C=C/c2ccc(-c3ccccc3)cc2)[C@@H](C)OC(=O)[C@H](CC(=O)c2ccccc2N)NC1=O [Compound 71]
- Sa42 MIC [1, 8]: 2 µg/mL
- Efm14 MIC [2, 8]: 16 µg/mL
- Efm384 MIC [3]: >32 µg/mL
- Sa399 MIC [4, 8]: 2 µg/mL
- Efs201 MIC [5, 8]: 8 µg/mL
- Efs312 MIC [6]: >32 µg/mL
- Sa278 MIC [7]: 32 µg/mL
- C. diff MIC90 (Clostridium difficile): 16 µg/mL

SMILES: CC(C)CCCCCCCCCC(=O)N[C@@H](Cc1c[nH]c2ccccc12)C(=O)N[C@H](CC(N)=O)C(=O)N[C@@H](CC(=O)O)C(=O)N[C@@H]1C(=O)NCC(=O)N[C@@H](CCCN)C(=O)N[C@@H](CC(=O)O)C(=O)N[C@H](C)C(=O)N[C@@H](CC(=O)O)C(=O)NCC(=O)N[C@H](CO)C(=O)N[C@@H]([C@H](C)CC(=O)O)C(=O)N[C@@H](CC(=O)c2ccccc2N)C(=O)O[C@@H]1C [Compound 10]
- Sa42 MIC ([1]; ATCC 29213): 0.25 µg/mL
- Efm14 MIC ([2]; ATCC 6569): 1 µg/mL
- Efm384 MIC [3]: 4 µg/mL
- Sa399 MIC ([4]; ATCC 43300): 0.25 µg/mL
- Efs201 MIC ([5]; ATCC 49452): 0.13 µg/mL
- Efs312 MIC [6]: >32 µg/mL
- Sa278 MIC [7]: 1 µg/mL
- C. diff MIC90 (Clostridium difficile): 1 µg/mL

SMILES: CC(C)Cc1ccc(C(C)C(=O)N[C@@H](Cc2c[nH]c3ccccc23)C(=O)N[C@H](CC(N)=O)C(=O)N[C@@H](CC(=O)O)C(=O)N[C@@H]2C(=O)NCC(=O)N[C@@H](CCCN)C(=O)N[C@@H](CC(=O)O)C(=O)N[C@H](C)C(=O)N[C@@H](CC(=O)O)C(=O)NCC(=O)N[C@H](CO)C(=O)N[C@@H]([C@H](C)CC(=O)O)C(=O)N[C@@H](CC(=O)c3ccccc3N)C(=O)O[C@@H]2C)cc1 (single isomer, unassigned) [45 isomer I]
- Sa42 MIC ([1]; ATCC 29213): 8 µg/mL
- Efm14 MIC ([2]; ATCC 6569): >32 µg/mL
- Efm384 MIC [3]: >32 µg/mL
- Sa399 MIC ([4]; ATCC 43300): 8 µg/mL
- Efs201 MIC ([5]; ATCC 49452): >32 µg/mL
- Efs312 MIC [6]: >32 µg/mL
- Sa278 MIC [7]: >32 µg/mL
- C. diff MIC90 (Clostridium difficile): 32 µg/mL

SMILES: C[C@H](CC(=O)O)[C@@H]1NC(=O)[C@@H](CO)NC(=O)CNC(=O)[C@H](CC(=O)O)NC(=O)[C@@H](C)NC(=O)[C@H](CC(=O)O)NC(=O)[C@H](CCCN)NC(=O)CNC(=O)[C@@H](NC(=O)[C@H](CC(=O)O)NC(=O)[C@@H](CC(N)=O)NC(=O)[C@H](Cc2c[nH]c3ccccc23)NC(=O)CCCCCCC2CCCCC2)[C@@H](C)OC(=O)[C@H](CC(=O)c2ccccc2N)NC1=O [Compound 25]
- Sa42 MIC ([1]; ATCC 29213): 0.5 µg/mL
- Efm14 MIC ([2]; ATCC 6569): 1 µg/mL
- Efm384 MIC [3]: 8 µg/mL
- Sa399 MIC ([4]; ATCC 43300): 0.5 µg/mL
- Efs201 MIC ([5]; ATCC 49452): 0.5 µg/mL
- Efs312 MIC [6]: 16 µg/mL
- Sa278 MIC [7]: 1 µg/mL
- C. diff MIC90 (Clostridium difficile): 1 µg/mL

SMILES: CCCOc1ccc(-c2ccc(C(=O)N[C@@H](Cc3c[nH]c4ccccc34)C(=O)N[C@H](CC(N)=O)C(=O)N[C@@H](CC(=O)O)C(=O)N[C@@H]3C(=O)NCC(=O)N[C@@H](CCCN)C(=O)N[C@@H](CC(=O)O)C(=O)N[C@H](C)C(=O)N[C@@H](CC(=O)O)C(=O)NCC(=O)N[C@H](CO)C(=O)N[C@@H]([C@H](C)CC(=O)O)C(=O)N[C@@H](CC(=O)c4ccccc4N)C(=O)O[C@@H]3C)cc2)cc1 [Compound 59]
- Sa42 MIC ([1]; ATCC 29213): 0.5 µg/mL
- Efm14 MIC ([2]; ATCC 6569): 4 µg/mL
- Efm384 MIC [3]: 32 µg/mL
- Sa399 MIC ([4]; ATCC 43300): 0.5 µg/mL
- Efs201 MIC ([5]; ATCC 49452): 4 µg/mL
- Efs312 MIC [6]: >32 µg/mL
- Sa278 MIC [7]: 4 µg/mL
- C. diff MIC90 (Clostridium difficile): 4 µg/mL

SMILES: C[C@H](CC(=O)O)[C@@H]1NC(=O)[C@@H](CO)NC(=O)CNC(=O)[C@H](CC(=O)O)NC(=O)[C@@H](C)NC(=O)[C@H](CC(=O)O)NC(=O)[C@H](CCCN)NC(=O)CNC(=O)[C@@H](NC(=O)[C@H](CC(=O)O)NC(=O)[C@@H](CC(N)=O)NC(=O)[C@H](Cc2c[nH]c3ccccc23)NC(=O)c2cc(-c3ccc(Cl)cc3)cs2)[C@@H](C)OC(=O)[C@H](CC(=O)c2ccccc2N)NC1=O [Compound 70]
- Sa42 MIC ([1]; ATCC 29213): 8 µg/mL
- Efm14 MIC ([2]; ATCC 6569): >32 µg/mL
- Efm384 MIC [3]: >32 µg/mL
- Sa399 MIC ([4]; ATCC 43300): 8 µg/mL
- Efs201 MIC ([5]; ATCC 49452): >32 µg/mL
- Efs312 MIC [6]: >32 µg/mL
- Sa278 MIC [7]: >32 µg/mL
- C. diff MIC90 (Clostridium difficile): 16 µg/mL

SMILES: CCCCCCCCC1CC1C(=O)N[C@@H](Cc1c[nH]c2ccccc12)C(=O)N[C@H](CC(N)=O)C(=O)N[C@@H](CC(=O)O)C(=O)N[C@@H]1C(=O)NCC(=O)N[C@@H](CCCN)C(=O)N[C@@H](CC(=O)O)C(=O)N[C@H](C)C(=O)N[C@@H](CC(=O)O)C(=O)NCC(=O)N[C@H](CO)C(=O)N[C@@H]([C@H](C)CC(=O)O)C(=O)N[C@@H](CC(=O)c2ccccc2N)C(=O)O[C@@H]1C (single isomer, unassigned) [27 isomer I]
- Sa42 MIC ([1]; ATCC 29213): 2 µg/mL
- Efm14 MIC ([2]; ATCC 6569): 4 µg/mL
- Efm384 MIC [3]: 32 µg/mL
- Sa399 MIC ([4]; ATCC 43300): 2 µg/mL
- Efs201 MIC ([5]; ATCC 49452): 2 µg/mL
- Efs312 MIC [6]: 32 µg/mL
- Sa278 MIC [7]: 8 µg/mL
- C. diff MIC90 (Clostridium difficile): 2 µg/mL

SMILES: CCCCCCCOc1ccc(-c2ccc(C(=O)N[C@@H](Cc3c[nH]c4ccccc34)C(=O)N[C@H](CC(N)=O)C(=O)N[C@@H](CC(=O)O)C(=O)N[C@@H]3C(=O)NCC(=O)N[C@@H](CCCN)C(=O)N[C@@H](CC(=O)O)C(=O)N[C@H](C)C(=O)N[C@@H](CC(=O)O)C(=O)NCC(=O)N[C@H](CO)C(=O)N[C@@H]([C@H](C)CC(=O)O)C(=O)N[C@@H](CC(=O)c4ccccc4N)C(=O)O[C@@H]3C)cc2)cc1 [Compound 63]
- Sa42 MIC [1, 8]: 0.25 µg/mL
- Efm14 MIC [2, 8]: 1 µg/mL
- Efm384 MIC [3]: 1 µg/mL
- Sa399 MIC [4, 8]: 0.25 µg/mL
- Efs201 MIC [5, 8]: 0.5 µg/mL
- Efs312 MIC [6]: 4 µg/mL
- Sa278 MIC [7]: 0.25 µg/mL
- C. diff MIC90 (Clostridium difficile): 2 µg/mL

SMILES: CCCCCCCCCC(C)NC(=O)N[C@@H](Cc1c[nH]c2ccccc12)C(=O)N[C@H](CC(N)=O)C(=O)N[C@@H](CC(=O)O)C(=O)N[C@@H]1C(=O)NCC(=O)N[C@@H](CCCN)C(=O)N[C@@H](CC(=O)O)C(=O)N[C@H](C)C(=O)N[C@@H](CC(=O)O)C(=O)NCC(=O)N[C@H](CO)C(=O)N[C@@H]([C@H](C)CC(=O)O)C(=O)N[C@@H](CC(=O)c2ccccc2N)C(=O)O[C@@H]1C (single isomer, unassigned) [14 isomer I]
- Sa42 MIC ([1]; ATCC 29213): 0.25 µg/mL
- Efm14 MIC ([2]; ATCC 6569): 0.5 µg/mL
- Efm384 MIC [3]: 8 µg/mL
- Sa399 MIC ([4]; ATCC 43300): 0.5 µg/mL
- Efs201 MIC ([5]; ATCC 49452): 1 µg/mL
- Efs312 MIC [6]: 32 µg/mL
- Sa278 MIC [7]: 1 µg/mL
- C. diff MIC90 (Clostridium difficile): 1.0 µg/mL
